Experimental data published in patent US20250073234A1, “COMBINATION THERAPIES INCLUDING PARP1 INHIBITORS” (Cornell University, priority 2022, published 2025).

Tests used:
[1] = system: PARP-1; experiment: Poly(ADP-ribosyl)ation in WPMY-1 cells (immunoblot, immunoprecipitation); format: cell-based, human; details: added to lactate-treated cells, 48 h
Description: (§1) Cells for protein analysis were lysed in RIPA buffer (20 mM Tris-HCl, […], 2 mM EDTA, 1% Triton-X, 10% glycerol, 0.1% SDS, and 0.5% sodium deoxycholate) with phosphatase and protease inhibitors. For immunoprecipitations, cells were lysed in IP lysis buffer (100 mM NaCl, 25 mM Tris, 1% Triton-X, 10% glycerol, with phosphatase and protease inhibitors) and immunoprecipitated with 25 μl of 50% slurry of protein […] beads (Bioworld). Immunoprecipitates were washed three times with lysis buffer, once with high salt (500 mM NaCl), and once more with lysis buffer. Protein concentration in lysates was determined by using Protein Assay Kit (Bio-Rad). Cell extracts and immunoprecipitated proteins were denatured, subjected to SDS-PAGE, transferred to PVDF membranes (GE Healthcare). After blocking with 5% nonfat dry milk in Tris-buffered saline and 0.1% Tween (TBS-T), the membranes were incubated with the specific antibodies (as listed in Key Resources Table) overnight at 4° C. After 2 hours incubation with the appropriate horseradish peroxidase-conjugated antibodies, the immune complexes were detected by chemiluminescence (Thermo Scientific) or Near-infrared fluorescence (LI-COR).

[2] = system: p62 in prostate, lung, breast and endometrial primary fibroblasts; experiment: p62 immunoblot in primary fibroblasts of different tissue origins; format: cell-based; details: Olaparib 20 μM, 4 days
Description: as §1

[3] = system: TRAMP+ prostate tumors; experiment: TRAMP+ prostate tumor model (IHC, scRNAseq); format: in vivo, mouse
Description: For mouse xenografts using PC3 PCa cells and sgC or sgAP-1 WPMY-1 stromal cells. 7 weeks old NSG mice were surgical castrated and let androgen levels drop for 10 days. Cells were trypsinized washed two times in PBS and resuspend in DMEN. 1×10^6 PC3 and 1×10^6 sgC or sgAP1-A WPMY-1 for each mouse were resuspended in 100 μl DMEM: Matrigel (1:1) and injected subcutaneously into both flanks of immunocompromised NSG mice (PC3+sgC WPMY-1 n=4; PC3+sgAP-1 WPMY-1 n=4). Tumors were allowed to grow for 1 month. Mice were euthanized and tumors were collected and analyzed histologically. For Olaparib treatment in mouse xenografts. PC3 PCa cells and WPMY-1 stromal cells were trypsinized washed two times in PBS and resuspend in DMEN. 1×10^6 PC3 and 1×10^6 WPMY-1 for each mouse were resuspended in 100 μl DMEM: Matrigel (1:1) and injected subcutaneously into both flanks of immunocompromised NSG mice. Tumors were allowed to grow for 14 days, and mouse were randomly divided to receive vehicle, n=10, Olaparib (40 mg/kg, 2 days each week, i.p.), n=10 or Olaparib (40 mg/kg, 2 days each week, i.p.)+_PEGPH20 (0.0375 mg/Kg, 2 days each week, retroorbital injection) n=10. Tumors were measured twice a week. Mice were euthanized 14 days after the initiation of the treatment and tumors were collected and analyzed histologically. For Olaparib treatment in mice, 13 weeks-old male TRAMP^+, n=18, were randomly distributed to receive vehicle, n=9, or Olaparib (40 mg/kg/, 5 days each week, i.p.), n=9. Mice were euthanized 1 month after the initiation of the treatment. Prostate and other organs were collected and analyzed histologically.
(§2) Tissues from indicated mice were isolated, fixed in zinc buffered formalin overnight at 4° C., dehydrated, and embedded in paraffin. Sections (5 μm) were stained with hematoxylin and eosin (H&E). For immunohistochemistry, sections were deparaffinized, rehydrated, and then treated for antigen retrieval. After blocking in Protein Block Serum-Free solutions (DAKO), tissues were incubated with primary antibody overnight at 4° C. followed by incubation with biotinylated secondary antibody. Endogenous peroxidase was quenched in 3% H2O2 in water for 10 minutes at room temperature. Antibodies were visualized with avidin-biotin complex (Vectastain Elite; Vector Laboratories) using diaminobenzidine as the chromogen. Stained sections were analyzed with a Zeiss light microscope supplemented with Zen 3.3 Bule edition software.
Prostate lobes dissected and washed with cold PBS. Prostate tissue was gently minced with scissors and digested in Advance DMEN/F12 media (Gibco, Thermo Fisher) with 5 mg/ml Collagenase type II (Sigma) supplemented with Y27632 (Tocris) for 1 hour at 37° C. Cells were passed through a 70 μm strainer and centrifuge 5 minutes, 1000 rpm at 4° C. After that, cells were incubated with TrypLE Express (Gibco, Thermo Fisher) supplemented with Y27632 for 20 minutes in agitation at 37° C. to achieve a single cell suspension. TrypLE Express was quenched and washed with Advance DMEN/F12 media and then cells were centrifuged for 5 minutes, 1000 rpm at 4° C. Dead cells were removed by Annexin V ([…] technologies). scRNA-seq libraries were generated using the Chromium Single Cell 30 Reagent Kit v2 (10× Genomics). Cells were loaded onto the 10×Chromium Single Cell Platform (10× Genomics) at a concentration of 2,000 cells per μl (Single Cell 3′ library and Gel Bead Kit v.2) as described in the manufacturer's protocol (10× User Guide, Revision B). On average, approximately 8,000 cells were loaded. Generation of gel beads in emulsion (GEMs), barcoding, GEM-RT clean-up, complementary DNA amplification and library construction were all performed as per the manufacturer's protocol. Individual sample quality was checked using a Bioanalyzer Tapestation (Agilent). Qubit was used for library quantification before pooling. The final library pool was sequenced on an Illumina NovaSeq6000 instrument using a S1 flow cell. […]

[4] = system: RM1-BoMe3 metastases; experiment: Caudal artery injection RM1-BoMe3 metastasis model; format: in vivo, mouse; details: Olaparib 40 mg/kg i.p., 3 weeks
Description: as §2
For the metastasis model, caudal artery injection was performed with 500000 RM1-BoMe3-RFP-Luc prostate cancer epithelial cells in 150 μl of PBS n=10 in 8-week-old C57B16 male mice. After 1-week luciferase was visualized using IVIS to detect signal in the lower limbs and in less frequently in visceral organs, mice with signal were randomly distributed to receive vehicle, n=5, or Olaparib n=5 (40 mg/kg/, 5 days each, i.p.). After 3 weeks, mice were euthanized and ex-vivo IVIS was performed in lower limbs, vertebrae, and visceral organs to detect metastasis sites. Tissues were collected and analyzed histologically.

Row | Compound | poly(ADP-ribosyl)ation of c-JUN and c-FOS in lactate-treated cells [1] | p62 expression [2] | desmoplastic response in the prostate (IHC HA, aSMA) ([3]; Olaparib 40 mg/Kg, 5 days a week, 4 weeks) | AR, EMT and TGFβ signaling signatures in tumor epithelium ([3]; Olaparib 4 weeks) | Has1, Spink1 and Tgfb2 transcripts in fibroblast population (scRNAseq) ([3]; Olaparib 4 weeks) | neuroendocrine cluster 2 (NE1) of tumor epithelium (scRNAseq) ([3]; Olaparib 4 weeks) | pSMAD2 staining in prostates (IHC) ([3]; Olaparib 4 weeks) | stromal and immune cell populations (scRNAseq) ([3]; Olaparib 4 weeks) | SPINK1 levels in tumor stroma (IHC) ([3]; in vivo) | HA deposition in liver metastasis (IHC) [4] | TGFβ signaling in bone metastasis (nuclear pSMAD2) [4] | HA deposition in liver metastasis (IHC) ([4]; listed as Ola) | TGFβ signaling in bone metastasis (nuclear pSMAD2) ([4]; listed as Ola)
1 | NC(=O)c1ccc[n+]([C@@H]2O[C@H](COP(=O)([O-])OP(=O)(O)OC[C@H]3O[C@@H](n4cnc5c(N)ncnc54)[C@H](O)[C@@H]3O)[C@@H](O)[C@H]2O)c1 [NAD^+] | rescued the poly(ADP-ribosyl) ation of both transcription factors | – | – | – | – | – | – | – | – | – | – | – | –
2 | O=C(c1cc(Cc2n[nH]c(=O)c3ccccc23)ccc1F)N1CCN(C(=O)C2CC2)CC1 [Olaparib] | – | downregulated p62 expression | induced a strong desmoplastic response in the prostate | increased AR, EMT and TGFβ signaling | among the most upregulated transcripts | completely abolished the neuroendocrine cluster 2 | increased pSMAD2 staining | expansion of the stromal and immune populations | highly upregulated | increased HA deposition in Olaparib-treated liver metastasis | increased pSMAD2 staining in bone metastasis | deposition of HA was observed | increased activation of TGFβ signaling
